In patent US9493446B2, “Orexin receptor antagonists which are [ortho bi-(hetero-)aryl]-[2-(meta bi-(hetero-)aryl)-pyrrolidin-1-yl]-methanone derivatives” (Actelion Pharmaceuticals Ltd, priority 2012, dated 2016):
Where two headings read alike, the source gives them in different places.

Experiments:
Wistar rats = experiment: Sleep effects: EEG, EMG and behavioural indices of alertness by radiotelemetry; assay type: in vivo; settings: 100 mg/kg po; effects analyzed over 12 hours; compared to vehicle controls
Description: Sleep Effects: EEG, EMG and Behavioural Indices of Alertness Recorded by Radiotelemetry In Vivo in Wistar Rats.
Electroencephalography (EEG) and Electromyography (EMG) signals were measured by telemetry using TL11M2-F20-EET miniature radiotelemetric implants (Data Science Int.) with two pairs of differential leads.
Surgical implantation was performed under general anesthesia with Ketamin/Xylazin, for cranial placement of one differential pair of EEG electrodes and one pair of EMG leads inserted in either side of the muscles of the neck. After surgery, rats recovered in a thermoregulated chamber and received analgesic treatment with subcutaneous buprenorphine twice a day for 2 d. They were then housed individually and allowed to recover for a minimum of 2 weeks. Thereafter, rats—in their home cage—were placed in a ventilated sound-attenuating box, on a 12-h light/12-h dark cycle, for acclimatization before continuous EEG/EMG recordings started. The telemetric technology that we used in this study allows accurate and stress-free acquisition of biosignals in rats placed in their familiar home cage environment, with no recording leads restricting their movements. Variables analyzed included four different stages of vigilance and sleep, spontaneous activity in the home cage and body temperature. Sleep and wake stages were evaluated using a rodent scoring software (Somnologica Science) directly processing electrical biosignals on 10 s contiguous epochs. The scoring is based on frequency estimation for EEG and amplitude discrimination for EMG and locomotor activity. Using these measurements, the software determines the probability that all components within each epoch best represent active waking (AW), quiet waking (QW), non-REM-sleep (NREM) or REM-sleep (REM). The percentage of total time spent in AW, QW, NREM- and REM-sleep was calculated per 12 h light or dark period. The latency to the onset of the first significant NREM- and REM-sleep episodes and the number and duration of those episodes were also calculated. AW, QW, NREM- and REM-sleep, home cage activity and body temperature were measured at baseline for at least one total circadian cycle (12 h-night, 12 h-day) before a test compound was administered. […] All variables were subsequently recorded for 12 h following administration of the orexin receptor antagonist.

[1] = Measurement of brain and systemic concentration after oral administration; assay type: in vivo; settings: rat, 3 h after oral administration (100 mg/kg), n=3, male wistar rats;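 as to concentration in plasma [P]: unit ng/mL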
Description: Measurement of Brain and Systemic Concentration after Oral Administration:
In order to assess brain penetration, the concentration of the compound is measured in plasma ([P]), and brain ([B]), sampled 3 h (or at different time points) following oral administration (e.g. 100 mg/kg) to male wistar rats. The compounds are formulated e.g. in 100% PEG 400. Samples are collected in the same animal at the same time point (+/−5 min). Blood is sampled from the vena cava caudalis into containers with EDTA as anticoagulant and centrifuged to yield plasma. Brain is sampled after cardiac perfusion of 10 mL NaCl 0.9% and homogenized into one volume of cold phosphate buffer (pH 7.4). All samples are extracted with MeOH and analyzed by LC-MS/MS. Concentrations are determined with the help of calibration curves.

orexin-1 = orexin-1 (Homo sapiens (Human), UniProt O43613); experiment: Intracellular calcium measurement (FLIPR), CHO cells expressing human orexin-1 receptor, 3 nM orexin-A; assay type: cell-based; settings: CHO cells expressing human orexin-1 receptor, FLIPR, 3 nM orexin-A; geometric mean if determined several times; read-out: IC50 OX1
Sequence of orexin-1 (O43613 whole entry): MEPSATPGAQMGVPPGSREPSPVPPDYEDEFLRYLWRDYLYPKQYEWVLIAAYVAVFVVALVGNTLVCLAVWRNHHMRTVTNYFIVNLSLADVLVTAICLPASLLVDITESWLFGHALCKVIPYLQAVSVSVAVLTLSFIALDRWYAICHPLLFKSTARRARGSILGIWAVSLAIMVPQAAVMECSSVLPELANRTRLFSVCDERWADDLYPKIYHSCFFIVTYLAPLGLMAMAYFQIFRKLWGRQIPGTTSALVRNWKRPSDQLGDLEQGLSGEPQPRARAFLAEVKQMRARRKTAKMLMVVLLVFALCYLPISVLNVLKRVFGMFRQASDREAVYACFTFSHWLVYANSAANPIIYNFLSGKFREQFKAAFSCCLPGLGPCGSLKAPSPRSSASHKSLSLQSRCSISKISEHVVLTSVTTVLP
Summary of the method: (§1)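 Antagonist is added 120 min before agonist. Fluo-4 AM-loaded CHO cells carry human orexin-1 or orexin-2 receptor, and calcium is read by FLIPR.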

human orexin-2 receptor = human orexin-2 receptor (Homo sapiens (Human), UniProt O43614); experiment: Intracellular calcium measurement (FLIPR), CHO cells expressing human orexin-2 receptor, 3 nM orexin-A; assay type: cell-based; settings: read-out: IC50 OX2
Sequence of human orexin-2 receptor (O43614 whole entry): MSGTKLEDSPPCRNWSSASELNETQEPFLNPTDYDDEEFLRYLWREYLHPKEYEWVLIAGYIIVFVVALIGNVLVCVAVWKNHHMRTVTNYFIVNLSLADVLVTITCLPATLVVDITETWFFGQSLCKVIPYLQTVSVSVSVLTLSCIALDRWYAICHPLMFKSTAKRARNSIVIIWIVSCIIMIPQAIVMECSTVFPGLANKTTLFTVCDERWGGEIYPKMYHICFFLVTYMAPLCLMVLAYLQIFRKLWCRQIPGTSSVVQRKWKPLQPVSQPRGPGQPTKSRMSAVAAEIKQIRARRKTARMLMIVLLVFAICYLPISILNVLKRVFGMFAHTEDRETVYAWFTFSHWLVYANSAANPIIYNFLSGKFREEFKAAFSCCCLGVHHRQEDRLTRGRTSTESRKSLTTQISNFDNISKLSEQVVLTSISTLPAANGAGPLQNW
Summary of the method: as §1

[2] = CHO cells expressing human orexin-2 receptor, FLIPR, 3 nM orexin-A, geometric mean if determined several times

Compound | IC50 (orexin-1) [nM] | IC50 (human orexin-2 receptor; [2]) [nM] | other results
Cc1ccc(C(=O)N2CCC[C@H]2c2nnc(-c3ccccc3OC(F)(F)F)[nH]2)c(-n2nccn2)c1 [Example 502, (4-Methyl-2-[1,2,3]triazol-2-yl-phenyl)-{(S)-2-[5-(2-trifluoromethoxy-phenyl)-4H-[1,2,4]triazol-3-yl]-pyrrolidin-1-yl}-methanone] | – | – | effect on NREM sleep (Wistar rats): +24.2%; effect on REM sleep (Wistar rats): +47.0%; effect on active wake (Wistar rats): −19.4%; effect on home cage activity (Wistar rats): −47.1%; concentration at 3 h ([1]; brain, read-out: concentration in brain [B]): 1640 ng/g; concentration at 3 h ([1]; plasma, read-out: concentration in plasma [P]): 2770 ng/mL
Cc1ccccc1-c1noc([C@@H]2CCCN2C(=O)c2ccoc2)n1 [Ref 6] | > 8500 | > 10000 | –
CCOc1c(F)cccc1-c1nc([C@@H]2CCCN2C(=O)c2cc(OC)c(Cl)cc2-n2nccn2)no1 [compound 369] | 15 | 2 | –
Cc1cc(C(=O)N2CCC[C@H]2c2nc(-c3cccc(Cl)c3C)no2)c(-n2cccn2)cc1C [compound 115] | 78 | 6 | –
C[C@@]1(c2nnc(-c3ccccc3OC(F)(F)F)[nH]2)CCCN1C(=O)c1cc(Cl)ccc1-n1nccn1 [compound 547] | 25 | 34 | –
CCOc1ccccc1-c1noc([C@@H]2CCCN2C(=O)c2cc(Cl)ccc2-n2nccn2)n1 [compound 255] | 36 | 8 | –
CCOc1c(F)cccc1-c1nc([C@@H]2CCCN2C(=O)c2cc(OC)c(C)cc2-n2nccn2)no1 [compound 323, {(S)-2-[5-(2-Ethoxy-3-fluoro-phenyl)-[1,2,4]oxadiazol-3-yl]-pyrrolidin-1-yl}-(5-methoxy-4-methyl-2-[1,2,3]triazol-2-yl-phenyl)-methanone] | 9 | 1 | –
Cc1noc(-c2ccccc2C(=O)N2CCC[C@H]2c2nc(-c3ccccc3OC(F)(F)F)no2)n1 [compound 134] | 274 | 219 | –
COc1cc(C(=O)N2CCC[C@H]2c2noc(-c3cccc(Cl)c3C)n2)c(-n2nccn2)cc1F [compound 322] | 158 | 6 | –
Cc1cc(-n2nccn2)c(C(=O)N2CCC[C@@]2(C)c2nnc(-c3ccccc3OC(F)(F)F)[nH]2)cc1Cl [compound 545] | 4 | – | IC50 (human orexin-2 receptor): 8 nM
COc1c(Cl)cccc1-c1nc([C@@H]2CCCN2C(=O)c2cc(Cl)ccc2-n2nccn2)no1 [compound 357] | 81 | – | IC50 (human orexin-2 receptor): 17 nM
O=C(c1ccc(Cl)cc1-n1nccn1)N1CCC[C@H]1c1nc(-c2ccccc2OC(F)(F)F)no1 [compound 172] | 56 | – | IC50 (human orexin-2 receptor): 18 nM

Further lines, with some results ahead:

IC50 (orexin-1) [nM] | IC50 (human orexin-2 receptor; [2]) [nM] | Compound | other results
112 | 14 | Cc1ccc(C(=O)N2CCC[C@H]2c2noc(-c3cccc(F)c3C)n2)c(-n2nccn2)c1 [compound 337, {(S)-2-[5-(3-Fluoro-2-methyl-phenyl)-[1,2,4]oxadiazol-3-yl]-pyrrolidin-1-yl}-(4-methyl-2-[1,2,3]triazol-2-yl-phenyl)-methanone] | –
10 | 2 | Cc1ccc(-n2nccn2)c(C(=O)N2CCC[C@H]2c2ncc(-c3ccccc3OC(F)(F)F)[nH]2)c1 [compound 529, (5-Methyl-2-[1,2,3]triazol-2-yl-phenyl)-{(S)-2-[5-(2-trifluoromethoxy-phenyl)-1H-imidazol-2-yl]-pyrrolidin-1-yl}-methanone] | –
73 | 42 | CCOc1ncccc1-c1noc([C@@H]2CCCN2C(=O)c2cc(OC)c(C)cc2-c2ncccn2)n1 [compound 287, {(S)-2-[3-(2-Ethoxy-pyridin-3-yl)-[1,2,4]oxadiazol-5-yl]-pyrrolidin-1-yl}-(5-methoxy-4-methyl-2-pyrimidin-2-yl-phenyl)-methanone] | –
> 1420 | 419 | Cc1ccc(-n2nccn2)c(C(=O)N2CCC[C@H]2c2nc(-c3cnn(C)c3)no2)c1 [compound 60, {(S)-2-[3-(1-Methyl-1H-pyrazol-4-yl)-[1,2,4]oxadiazol-5-yl]-pyrrolidin-1-yl}-(5-methyl-2-[1,2,3]triazol-2-yl-phenyl)-methanone] | –
19 | 15 | Cc1ccc(-n2nccn2)c(C(=O)N2CCC[C@H]2c2nc(-c3ccccc3OC(F)(F)F)no2)c1F [compound 145, (2-Fluoro-3-methyl-6-[1,2,3]triazol-2-yl-phenyl)-{(S)-2-[3-(2-trifluoromethoxy-phenyl)-[1,2,4]oxadiazol-5-yl]-pyrrolidin-1-yl}-methanone] | –
129 | 295 | Cc1ccc(-n2nccn2)c(C(=O)N2CCC[C@H]2c2nc(-c3ccccc3)co2)c1 [Example 459, (5-Methyl-2-[1,2,3]triazol-2-yl-phenyl)-[(S)-2-(4-phenyl-oxazol-2-yl)-pyrrolidin-1-yl]-methanone] | –
225 | 20 | COc1cc(C(=O)N2CCC[C@H]2c2nc(-c3cccc(F)c3OC)no2)c(-n2nccn2)cc1OC [compound 208, (4,5-Dimethoxy-2-[1,2,3]triazol-2-yl-phenyl)-{(S)-2-[3-(3-fluoro-2-methoxy-phenyl)-[1,2,4]oxadiazol-5-yl]-pyrrolidin-1-yl}-methanone] | –
53 | 14 | O=C(c1cccc(F)c1-c1ccn[nH]1)N1CCC[C@H]1c1nc(-c2ccccc2OC(F)F)no1 [compound 190, {(S)-2-[3-(2-Difluoromethoxy-phenyl)-[1,2,4]oxadiazol-5-yl]-pyrrolidin-1-yl}-[3-fluoro-2-(2H-pyrazol-3-yl)-phenyl]-methanone] | –
73 | 6 | Cc1ccc(-n2nccn2)c(C(=O)N2CCC[C@H]2c2noc(-c3cc(C)ccc3C)n2)c1 [compound 390, {(S)-2-[5-(2,5-Dimethyl-phenyl)-[1,2,4]oxadiazol-3-yl]-pyrrolidin-1-yl}-(5-methyl-2-[1,2,3]triazol-2-yl-phenyl)-methanone] | –
151 | 6 | CCOc1c(F)cccc1-c1nc([C@@H]2CCCN2C(=O)c2cc(OC)c(F)cc2-n2nccn2)no1 [compound 325, {(S)-2-[5-(2-Ethoxy-3-fluoro-phenyl)-[1,2,4]oxadiazol-3-yl]-pyrrolidin-1-yl}-(4-fluoro-5-methoxy-2-[1,2,3]triazol-2-yl-phenyl)-methanone] | –
27 | 3 | CCOc1c(F)cccc1-c1nc([C@@H]2CCCN2C(=O)c2cc(OC)ccc2-n2nccn2)no1 [compound 326, {(S)-2-[5-(2-Ethoxy-3-fluoro-phenyl)-[1,2,4]oxadiazol-3-yl]-pyrrolidin-1-yl}-(5-methoxy-2-[1,2,3]triazol-2-yl-phenyl)-methanone] | –
340 | 43 | COc1c(F)cccc1-c1noc([C@@H]2CCCN2C(=O)c2ccc(C(F)(F)F)cc2-n2nccn2)n1 [compound 205, {(S)-2-[3-(3-Fluoro-2-methoxy-phenyl)-[1,2,4]oxadiazol-5-yl]-pyrrolidin-1-yl}-(2-[1,2,3]triazol-2-yl-4-trifluoromethyl-phenyl)-methanone] | –
52 | 8 | Cc1ccc(-n2nccn2)c(C(=O)N2CCC[C@H]2c2nc(-c3cccc4ccn(C)c34)no2)c1 [compound 77, {(S)-2-[3-(1-Methyl-1H-indol-7-yl)-[1,2,4]oxadiazol-5-yl]-pyrrolidin-1-yl}-(5-methyl-2-[1,2,3]triazol-2-yl-phenyl)-methanone] | –
